The source made the active and inactive calls. No cut-off for these calls is given here.
What was measured:
[1] = biological target: T1, Metabotropic glutamate receptor 5 (Rattus norvegicus, UniProt P31424); experiment: Ago-positive allosteric modulation of rat mGlu5 receptor expressed in HEK293 cells by fluorescence-based calcium flux assay; assay type: functional, cell-based
[2] = biological target: Metabotropic glutamate receptor 5 (Rattus norvegicus) (UniProt P31424); experiment: Ago-positive allosteric modulation of rat mGlu5 receptor expressed in HEK293 cells by fluorescence-based calcium flux assay relative to glutamate; assay type: functional, cell-based
HEK293 = experiment: Selectivity ratio of EC50 for human mGlu5 receptor expressed in HEK293 cells to EC50 for rat mGlu5 receptor expressed in HEK293 cells; assay type: cell-based
[3] = biological target: Metabotropic glutamate receptor 1 (Homo sapiens) (UniProt Q13255); experiment: Positive allosteric modulation of mGluR1
Metabotropic glutamate receptor 1 (Homo sapiens), sequence (Q13255 19-1194 limits assumed): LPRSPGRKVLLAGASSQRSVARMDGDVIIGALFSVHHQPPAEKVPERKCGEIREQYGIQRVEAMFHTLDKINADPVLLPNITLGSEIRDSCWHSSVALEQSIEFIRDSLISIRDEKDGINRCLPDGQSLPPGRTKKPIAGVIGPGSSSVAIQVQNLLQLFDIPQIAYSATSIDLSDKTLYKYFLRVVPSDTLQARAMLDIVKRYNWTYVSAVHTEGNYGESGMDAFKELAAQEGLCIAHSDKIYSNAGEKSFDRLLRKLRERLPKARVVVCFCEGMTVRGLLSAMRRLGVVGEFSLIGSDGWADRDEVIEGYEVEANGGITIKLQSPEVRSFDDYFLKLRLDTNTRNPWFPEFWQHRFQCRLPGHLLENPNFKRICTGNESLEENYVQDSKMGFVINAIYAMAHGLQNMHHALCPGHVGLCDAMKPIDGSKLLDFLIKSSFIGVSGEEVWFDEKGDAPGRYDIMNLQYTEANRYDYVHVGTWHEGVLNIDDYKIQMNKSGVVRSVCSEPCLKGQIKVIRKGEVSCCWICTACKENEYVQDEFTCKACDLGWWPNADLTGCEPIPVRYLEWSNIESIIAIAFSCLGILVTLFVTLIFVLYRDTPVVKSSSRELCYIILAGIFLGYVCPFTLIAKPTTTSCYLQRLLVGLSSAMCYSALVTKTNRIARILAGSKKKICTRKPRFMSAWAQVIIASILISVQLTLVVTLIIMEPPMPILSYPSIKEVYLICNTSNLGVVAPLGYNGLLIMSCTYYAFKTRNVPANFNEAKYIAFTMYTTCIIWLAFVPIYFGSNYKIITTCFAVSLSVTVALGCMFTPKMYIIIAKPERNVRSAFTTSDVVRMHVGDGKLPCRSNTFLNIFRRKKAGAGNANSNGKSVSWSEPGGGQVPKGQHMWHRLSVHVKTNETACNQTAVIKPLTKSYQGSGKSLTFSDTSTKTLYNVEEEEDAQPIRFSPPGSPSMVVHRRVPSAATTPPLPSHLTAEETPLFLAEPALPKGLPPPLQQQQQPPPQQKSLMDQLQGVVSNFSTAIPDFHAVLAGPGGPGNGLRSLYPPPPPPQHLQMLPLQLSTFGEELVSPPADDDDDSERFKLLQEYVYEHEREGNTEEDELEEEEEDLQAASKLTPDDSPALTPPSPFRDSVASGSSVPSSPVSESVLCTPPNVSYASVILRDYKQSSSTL

[4] = biological target: T2, Metabotropic glutamate receptor 5 (Homo sapiens, UniProt P41594); experiment: Positive allosteric modulation of human mGlu5 receptor expressed in HEK293 cells by fluorescence-based calcium flux assay; assay type: functional, cell-based
Target sequence in this assay (P41594 whole entry): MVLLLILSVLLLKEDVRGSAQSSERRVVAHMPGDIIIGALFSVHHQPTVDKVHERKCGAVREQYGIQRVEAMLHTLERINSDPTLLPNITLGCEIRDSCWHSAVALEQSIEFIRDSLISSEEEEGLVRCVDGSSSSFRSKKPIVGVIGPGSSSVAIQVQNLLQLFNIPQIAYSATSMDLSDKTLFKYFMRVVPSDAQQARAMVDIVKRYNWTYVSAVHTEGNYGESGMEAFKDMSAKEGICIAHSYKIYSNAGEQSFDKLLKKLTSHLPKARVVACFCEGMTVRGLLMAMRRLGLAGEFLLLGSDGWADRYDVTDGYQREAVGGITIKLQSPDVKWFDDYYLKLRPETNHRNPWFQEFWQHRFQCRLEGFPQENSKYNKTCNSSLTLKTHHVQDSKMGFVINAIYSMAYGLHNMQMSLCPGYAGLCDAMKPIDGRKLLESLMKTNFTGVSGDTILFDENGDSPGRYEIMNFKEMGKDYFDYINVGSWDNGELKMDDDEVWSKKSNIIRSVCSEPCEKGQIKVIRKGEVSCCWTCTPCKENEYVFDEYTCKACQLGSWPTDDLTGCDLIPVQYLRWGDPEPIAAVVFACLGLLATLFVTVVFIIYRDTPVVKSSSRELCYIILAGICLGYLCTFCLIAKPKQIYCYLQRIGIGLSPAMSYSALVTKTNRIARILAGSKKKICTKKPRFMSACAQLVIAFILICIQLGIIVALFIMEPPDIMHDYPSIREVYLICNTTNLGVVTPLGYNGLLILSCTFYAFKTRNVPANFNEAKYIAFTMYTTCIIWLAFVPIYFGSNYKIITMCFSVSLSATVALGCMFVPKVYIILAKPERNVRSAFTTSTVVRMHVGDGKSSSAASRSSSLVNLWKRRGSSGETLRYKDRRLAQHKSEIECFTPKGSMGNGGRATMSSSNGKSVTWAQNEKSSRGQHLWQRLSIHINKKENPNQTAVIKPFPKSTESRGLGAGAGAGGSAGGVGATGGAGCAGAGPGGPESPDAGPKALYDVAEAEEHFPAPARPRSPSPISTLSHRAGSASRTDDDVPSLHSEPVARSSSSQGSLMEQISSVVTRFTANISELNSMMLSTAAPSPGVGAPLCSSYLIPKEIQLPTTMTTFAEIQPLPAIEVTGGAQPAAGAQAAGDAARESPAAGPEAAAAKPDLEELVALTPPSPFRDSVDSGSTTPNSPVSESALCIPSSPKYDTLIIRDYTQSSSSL

[5] = biological target: Metabotropic glutamate receptor 8 (Homo sapiens) (UniProt O00222); experiment: Positive allosteric modulation of mGluR8
[6] = biological target: T1, Metabotropic glutamate receptor 5; experiment: Displacement of [3H]-methoxyPEPy from rat mGlu5 receptor expressed in HEK293 cells after 1 hr by scintillation counting analysis; assay type: cell-based
[7] = biological target: Metabotropic glutamate receptor 7 (Homo sapiens) (UniProt Q14831); experiment: Positive allosteric modulation of mGluR7
Metabotropic glutamate receptor 7 (Homo sapiens), sequence (Q14831 whole entry): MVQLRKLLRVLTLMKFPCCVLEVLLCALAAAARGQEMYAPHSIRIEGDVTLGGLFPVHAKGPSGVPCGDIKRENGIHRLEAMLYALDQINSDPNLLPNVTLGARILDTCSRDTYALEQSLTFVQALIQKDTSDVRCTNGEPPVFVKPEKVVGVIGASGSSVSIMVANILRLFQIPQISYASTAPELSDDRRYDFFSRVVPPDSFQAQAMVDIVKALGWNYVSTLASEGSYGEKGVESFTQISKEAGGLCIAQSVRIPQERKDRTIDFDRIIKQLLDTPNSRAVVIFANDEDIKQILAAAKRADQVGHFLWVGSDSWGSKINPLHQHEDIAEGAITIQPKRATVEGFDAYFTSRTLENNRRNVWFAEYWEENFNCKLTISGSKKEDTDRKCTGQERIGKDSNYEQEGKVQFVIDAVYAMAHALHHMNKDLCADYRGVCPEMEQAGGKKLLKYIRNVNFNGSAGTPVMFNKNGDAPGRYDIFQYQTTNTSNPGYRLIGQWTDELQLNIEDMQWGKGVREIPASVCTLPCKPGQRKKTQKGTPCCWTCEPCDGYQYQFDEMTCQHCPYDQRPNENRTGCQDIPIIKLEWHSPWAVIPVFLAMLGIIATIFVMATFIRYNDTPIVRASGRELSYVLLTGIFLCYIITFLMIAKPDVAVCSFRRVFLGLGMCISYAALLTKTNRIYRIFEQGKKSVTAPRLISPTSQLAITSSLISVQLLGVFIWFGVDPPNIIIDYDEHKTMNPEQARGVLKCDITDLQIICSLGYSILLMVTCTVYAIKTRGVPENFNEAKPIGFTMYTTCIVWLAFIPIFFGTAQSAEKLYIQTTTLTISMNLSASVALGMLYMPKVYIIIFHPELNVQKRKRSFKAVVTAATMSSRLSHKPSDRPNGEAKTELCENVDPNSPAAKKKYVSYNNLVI

[8] = biological target: Metabotropic glutamate receptor 4 (Homo sapiens) (UniProt Q14833); experiment: Positive allosteric modulation of mGluR4
Metabotropic glutamate receptor 4 (Homo sapiens), sequence (Q14833 whole entry): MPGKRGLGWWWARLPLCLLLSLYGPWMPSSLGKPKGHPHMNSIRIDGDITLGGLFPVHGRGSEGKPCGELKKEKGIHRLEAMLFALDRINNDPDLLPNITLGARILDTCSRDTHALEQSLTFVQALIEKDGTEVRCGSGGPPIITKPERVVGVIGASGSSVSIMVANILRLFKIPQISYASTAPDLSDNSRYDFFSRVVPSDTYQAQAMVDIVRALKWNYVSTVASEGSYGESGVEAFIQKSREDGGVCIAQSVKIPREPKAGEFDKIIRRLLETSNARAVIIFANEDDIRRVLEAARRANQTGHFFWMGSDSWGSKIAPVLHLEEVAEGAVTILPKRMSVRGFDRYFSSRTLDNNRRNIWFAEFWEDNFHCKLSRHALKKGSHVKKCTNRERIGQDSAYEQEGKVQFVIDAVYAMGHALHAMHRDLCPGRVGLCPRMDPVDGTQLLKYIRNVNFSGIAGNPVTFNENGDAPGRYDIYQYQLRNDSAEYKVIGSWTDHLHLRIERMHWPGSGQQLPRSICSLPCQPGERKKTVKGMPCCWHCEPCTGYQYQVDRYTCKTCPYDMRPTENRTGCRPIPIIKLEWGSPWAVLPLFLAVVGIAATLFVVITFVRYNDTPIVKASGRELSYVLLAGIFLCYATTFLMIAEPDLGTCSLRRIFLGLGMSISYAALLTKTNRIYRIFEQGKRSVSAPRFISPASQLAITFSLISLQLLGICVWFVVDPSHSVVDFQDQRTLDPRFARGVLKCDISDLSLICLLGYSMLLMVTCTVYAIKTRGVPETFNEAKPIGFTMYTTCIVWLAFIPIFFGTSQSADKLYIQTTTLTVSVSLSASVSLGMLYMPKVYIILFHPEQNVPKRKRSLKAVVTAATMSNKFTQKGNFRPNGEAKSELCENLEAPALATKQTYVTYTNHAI

[9] = biological target: T2, Metabotropic glutamate receptor 5; experiment: Positive allosteric modulation of human mGlu5 receptor expressed in HEK293 cells by fluorescence-based calcium flux assay relative to glutamate; assay type: functional, cell-based
[10] = biological target: Metabotropic glutamate receptor 3 (Homo sapiens) (UniProt Q14832); experiment: Positive allosteric modulation of mGluR3
[11] = biological target: Metabotropic glutamate receptor 6 (Homo sapiens) (UniProt O15303); experiment: Positive allosteric modulation of mGluR6
[12] = biological target: Metabotropic glutamate receptor 2 (Homo sapiens) (UniProt Q14416); experiment: Positive allosteric modulation of mGluR2
Metabotropic glutamate receptor 2 (Homo sapiens), sequence (Q14416 19-872 limits assumed): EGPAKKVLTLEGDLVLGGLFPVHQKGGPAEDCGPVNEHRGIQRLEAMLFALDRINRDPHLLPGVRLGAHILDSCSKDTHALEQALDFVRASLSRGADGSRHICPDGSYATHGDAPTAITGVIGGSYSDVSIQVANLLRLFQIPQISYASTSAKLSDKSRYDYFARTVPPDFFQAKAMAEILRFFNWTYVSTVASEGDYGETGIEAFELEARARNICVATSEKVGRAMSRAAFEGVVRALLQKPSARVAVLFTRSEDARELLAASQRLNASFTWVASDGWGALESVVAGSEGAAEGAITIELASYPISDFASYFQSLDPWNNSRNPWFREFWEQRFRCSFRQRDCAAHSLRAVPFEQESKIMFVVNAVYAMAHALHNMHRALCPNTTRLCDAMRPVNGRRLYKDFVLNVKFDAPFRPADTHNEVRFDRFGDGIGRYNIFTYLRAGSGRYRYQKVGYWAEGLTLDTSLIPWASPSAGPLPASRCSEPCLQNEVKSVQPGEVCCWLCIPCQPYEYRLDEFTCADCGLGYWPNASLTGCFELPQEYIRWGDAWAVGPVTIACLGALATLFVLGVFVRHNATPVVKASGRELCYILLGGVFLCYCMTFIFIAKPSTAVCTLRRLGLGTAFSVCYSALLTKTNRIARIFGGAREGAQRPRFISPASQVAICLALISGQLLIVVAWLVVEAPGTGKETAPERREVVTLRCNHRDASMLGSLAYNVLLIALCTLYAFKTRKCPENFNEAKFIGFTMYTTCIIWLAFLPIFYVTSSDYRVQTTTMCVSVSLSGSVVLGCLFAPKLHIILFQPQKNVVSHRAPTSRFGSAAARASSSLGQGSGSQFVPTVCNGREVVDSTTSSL

Liver microsomes = experiment: Metabolic stability in rat liver microsomes assessed as compound remaining at 1 uM after 15 mins in presence of NADPH; assay type: ADME, Microsome; settings: 0.25 h
Plasma [13] = experiment: (§1) Fraction unbound in rat plasma at 5 uM after 4 hrs by equilibrium dialysis method; assay type: ADME, cell-free; settings: 4 h, 5 µM
Plasma [14] = experiment: (§2) Fraction unbound in human plasma at 5 uM after 4 hrs by equilibrium dialysis method; assay type: ADME, cell-free; settings: 4 h, 5 µM
[15] = biological target: Metabotropic glutamate receptor 5 (Rattus norvegicus) (UniProt P31424); experiment: Displacement of [3H]-methoxyPEPy from rat mGlu5 receptor expressed in HEK293 cells up to 30 uM after 1 hr by scintillation counting analysis; assay type: cell-based
[16] = Ratio of AUC in Sprague-Dawley rat brain at 10 mg/kg, ip to AUC in Sprague-Dawley rat plasma at 10 mg/kg, ip; assay type: ADME, organism-based; settings: brain and plasma, read-out: Ratio AUC
[17] = Inhibition of calcium channel
[18] = as §1; assay type: ADME, cell-free
[19] = Inhibition of sodium channel
[20] = biological target: Voltage-gated inwardly rectifying potassium channel KCNH2 (Homo sapiens, UniProt Q12809); experiment: Inhibition of human ERG
[21] = as §2; assay type: ADME, cell-free

| Structure (SMILES) | EC50 [1] [µM] | Emax [2] [%] | EC50 ([4]; read-out: EC50) [µM] | Emax [9] [%] | other results |
| --- | --- | --- | --- | --- | --- |
| CCS(=O)(=O)N1c2ccccc2CC[C@H]1C(=O)Nc1cccc(Cl)c1 | 2.5 | 74 |  |  |  |
| O=C(Nc1ccc(Cl)cc1CN1C(=O)c2ccccc2C1=O)c1ccccc1O |  |  |  |  | Ratio EC50 (HEK293): 3 |
| CC(C(=O)Nc1cccc(Cl)c1)N(c1ccccc1Cl)S(C)(=O)=O (racemic) | 0.068 | 43 |  |  |  |
| CS(=O)(=O)N(CC(=O)Nc1cccc(Cl)c1)c1ccccc1Cl | 0.08 | 74 | 0.78 | 63 | Activity [3]: > 10 µM; Activity [5]: > 10 µM; Ki [6]: > 10 µM; Activity [7]: > 10 µM; Ratio EC50 (HEK293): 10; Activity [8]: > 10 µM; Activity [10]: > 10 µM; Activity [11]: > 10 µM; Activity [12]: > 10 µM |
| CS(=O)(=O)N(CC(=O)Nc1ccc(F)cn1)c1ccccc1Cl | 3.72 | 66 |  |  | Stability (Liver microsomes): 39%; Fu (Plasma [13]): 0.17; Fu (Plasma [14]): 0.09 |
| CS(=O)(=O)N1c2ccccc2CCC1C(=O)Nc1ccccn1 (racemic) | 1.3 | 68 |  |  |  |
| CS(=O)(=O)N1c2ccccc2CCC1C(=O)Nc1cccc(Cl)c1 (racemic) | 1 | 60 |  |  |  |
| CS(=O)(=O)N(CC(=O)Nc1ccccc1)c1ccccc1Cl | 0.07 | 61 | 1.38 | 77 | Stability (Liver microsomes): <= 4%; Activity [3]: > 10 µM; Ki [6]: > 10 µM; Fu (Plasma [13]): 0.13; Activity [7]: > 10 µM; Activity [8]: > 10 µM; Activity [10]: > 10 µM; Activity [11]: > 10 µM; Activity [12]: > 10 µM |
| O=S(=O)(c1ccc(F)cc1)N1CCC[C@H](c2nc(-c3ccc(F)cc3)no2)C1 | 3.4 | 84 | > 10 | 43 | Activity [15]: inactive |
| Cn1cnc(S(=O)(=O)N2c3ccccc3CCC2C(=O)Nc2cccc(Cl)c2)c1 (racemic) | > 10 | 75 |  |  |  |
| CCC(C(=O)Nc1cccc(Cl)c1)N(c1ccccc1Cl)S(C)(=O)=O (racemic) | 3.3 |  |  |  |  |
| O=C(Nc1cccc(Cl)c1)[C@@H]1CCc2ccccc2N1S(=O)(=O)c1ccccc1F | 6.7 | 78 |  |  |  |
| O=S(=O)(c1ccc(C#Cc2cccc(F)c2)cc1)N1CCOCC1 | 0.457 | 55 |  |  | EC50 ([4]; hek293): Not Active; Activity [15]: inactive |
| CS(=O)(=O)N(CC(=O)NCC1CC1)c1cc(C(F)(F)F)ccc1Cl | 0.398 | 61 | 4.5 | 70 | Activity [3]: > 10 µM; Kp [16]: 0.4; IC50 [17]: > 10 µM; Activity [5]: > 10 µM; Ki [6]: > 30 µM; fraction unbound at 4 h, 5 µM [18]: 0.13; Activity [7]: > 10 µM; IC50 [19]: > 10 µM; Activity [8]: > 10 µM; Activity [10]: > 10 µM; Activity [11]: > 10 µM; Activity [12]: > 10 µM; IC50 [20]: > 10 µM; fraction unbound at 4 h, 5 µM [21]: 0.1 |
| CCCC(C(=O)Nc1cccc(Cl)c1)N(c1ccccc1Cl)S(C)(=O)=O (racemic) | > 10 |  |  |  |  |
| CS(=O)(=O)N(CC(=O)Nc1ccc(F)nc1)c1ccccc1Cl | 4.47 | 72 | > 10 | 35 | pEC50 ([4]; hek293): < 5 |
| CS(=O)(=O)N(CC(=O)Nc1cccnc1F)c1ccccc1Cl | 1.74 | 64 | > 10 | 42 | pEC50 ([4]; hek293): < 5 |

Source: ChEMBL document CHEMBL2203047, “Discovery and SAR of a novel series of non-MPEP site mGlu₅ PAMs based on an aryl glycine sulfonamide scaffold” (Bioorg Med Chem Lett, 2012)
